Tests used:
[1] = tested on: recombinant human anti-SARS-CoV antibody 03-018; assay type: binding; parameters: Binding of antibody 03-018 to linear peptides of the N protein of SARS-CoV Urbani / Binding of antibody 03-018 to looped/cyclic peptides of the N protein of SARS-CoV Urbani: unit not given here
[2] = tested on: control sera (pooled serum of ten healthy LUMC hospital workers; commercial negative donor pooled serum from the Dutch bloodbank); assay type: binding, human; parameters: Binding of Control serum LUMC to linear peptides / Binding of Control serum Blood-bank to linear peptides / Binding of Control serum LUMC to looped peptides / Binding of Control Serum Blood-Bank to Looped peptides / Binding of Control serum LUMC to linear peptides of the protein M of SARS-CoV Urbani / Binding of Control serum Blood-bank to linear peptides of the protein M of SARS-CoV Urbani / Binding of Control serum LUMC to looped peptides of the protein M of SARS-CoV Urbani / Binding of Control Serum Blood-Bank to Looped peptides of the protein M of SARS-CoV Urbani: unit not given here
[3] = tested on: antibodies in sera from SARS patients (sera 1a, 1b, 2, 6, 37, 62, London, SARS-yellow, SARS-green); assay type: binding, human; parameters: Binding of serum 6 to linear peptides of protein X1 of SARS-CoV Urbani / Binding of serum 37 to linear peptides of protein X1 of SARS-CoV Urbani / Binding of serum 6 to looped/cyclic peptide (PEPSCAN-ELISA) / Binding of serum 37 to looped/cyclic peptide (PEPSCAN-ELISA) / Binding of serum 37 to looped/cyclic peptides of protein X1 of SARS-CoV Urbani / Binding of serum 6 to linear peptides of protein X2 / Binding of serum 37 to linear peptides of protein X2 / Binding of serum 37 to looped/cyclic peptides of protein X2 of SARS-CoV Urbani / Binding of serum 6 to linear peptides of protein M of SARS-CoV Urbani / Binding of serum 37 to linear peptides of protein M of SARS-CoV Urbani / Binding of serum 6 to looped/cyclic peptides of protein M of SARS-CoV Urbani / Binding of serum 37 to looped/cyclic peptides of protein M of SARS-CoV Urbani / Binding of serum 6 to linear peptides of protein X3 of SARS-CoV Urbani / Binding of serum 37 to linear peptides of protein X3 of SARS-CoV Urbani / Binding of serum 37 to looped/cyclic peptides of protein X3 of SARS-CoV Urbani / Binding of serum 6 to linear peptides of protein X4 of SARS-CoV Urbani / Binding of serum 37 to linear peptides of protein X4 of SARS-CoV Urbani / Binding of serum 37 to looped/cyclic peptides of protein X4 of SARS-CoV Urbani / Binding of serum 6 to linear peptides of protein X5 of SARS-CoV Urbani / Binding of serum 37 to linear peptides of protein X5 of SARS-CoV Urbani / Binding of serum 37 to looped/cyclic peptides of protein X5 of SARS-CoV Urbani / Binding of serum 6 to linear peptides of protein N of SARS-CoV Urbani / Binding of serum 37 to linear peptides of protein N of SARS-CoV Urbani / Binding of serum 6 to linear peptide (PEPSCAN-ELISA) / Binding of serum 1a to looped/cyclic peptides of protein N of SARS-CoV Urbani / Binding of serum 1b to looped/cyclic peptides of protein N of SARS-CoV Urbani / Binding of serum 2 to looped/cyclic peptides of protein N of SARS-CoV Urbani / Binding of serum 6 to looped/cyclic peptides of protein N of SARS-CoV Urbani / Binding of serum 37 to looped/cyclic peptides of protein N of SARS-CoV Urbani / Binding of serum 62 to looped/cyclic peptides of protein N of SARS-CoV Urbani / Binding of serum London to looped/cyclic peptides of protein N of SARS-CoV Urbani / Binding of serum SARS-green to looped/cyclic peptides of protein N of SARS-CoV Urbani: unit not given here
[4] = tested on: rabbit serum obtained by immunizing a rabbit with the SARS-CoV strain Frankfurt 1; assay type: binding; parameters: Binding of a rabbit serum to linear peptides / Binding of a rabbit serum to looped peptides / Rabbit serum linear peptides / Rabbit serum looped peptides / Binding of a rabbit serum to linear peptides of protein N of SARS-CoV Urbani (Rabbit serum linear peptides) / Binding of a rabbit serum to looped/cyclic peptides of protein N of SARS-CoV Urbani (Rabbit serum looped peptides): unit not given here

Sequence | Binding of antibody 03-018 to linear peptides of the N protein of SARS-CoV Urbani [1] | Binding of antibody 03-018 to looped/cyclic peptides of the N protein of SARS-CoV Urbani [1] | Binding of serum 1a to linear peptides of protein N of SARS-CoV Urbani [3] | Binding of serum 1a to looped/cyclic peptides of protein N of SARS-CoV Urbani [3] | Binding of serum 1b to linear peptides of protein N of SARS-CoV Urbani [3] | Binding of serum 1b to looped/cyclic peptides of protein N of SARS-CoV Urbani [3] | Binding of serum 2 to linear peptides of protein N of SARS-CoV Urbani [3] | Binding of serum 2 to looped/cyclic peptides of protein N of SARS-CoV Urbani [3] | Binding of serum 6 to linear peptides of protein N of SARS-CoV Urbani [3] | Binding of serum 6 to looped/cyclic peptides of protein N of SARS-CoV Urbani [3] | Binding of serum 37 to linear peptides of protein N of SARS-CoV Urbani [3] | Binding of serum 37 to looped/cyclic peptides of protein N of SARS-CoV Urbani [3] | Binding of serum 62 to linear peptides of protein N of SARS-CoV Urbani [3] | Binding of serum 62 to looped/cyclic peptides of protein N of SARS-CoV Urbani [3] | Binding of serum London to linear peptides of protein N of SARS-CoV Urbani [3] | Binding of serum London to looped/cyclic peptides of protein N of SARS-CoV Urbani [3] | Binding of serum SARS-green to linear peptides of protein N of SARS-CoV Urbani [3] | Binding of serum SARS-green to looped/cyclic peptides of protein N of SARS-CoV Urbani [3] | Binding of serum SARS-yellow to linear peptides of protein N of SARS-CoV Urbani [3] | Binding of serum SARS-yellow to looped/cyclic peptides of protein N of SARS-CoV Urbani [3] | further results
LTYHGAIKLDDKDPQ | 0.1 | 0.2 | 0.2 | 0.3 | 0.1 | 0.1 | 0.2 | 0.3 | 0.2 | 0.1 | 0.6 | 0.5 | 1.0 | 0.3 | 0.5 | 0.4 | 0.2 | 0.1 | 0.7 | 0.4 | Control Serum Blood-Bank Looped peptides [2]: 0.5; Control serum Blood-bank linear peptides [2]: 0.7; Control serum LUMC linear peptides [2]: 0.6; Control serum LUMC looped peptides [2]: 0.5; Binding of a rabbit serum to linear peptides of protein N of SARS-CoV Urbani (Rabbit serum linear peptides) [4]: 0.1; Binding of a rabbit serum to looped/cyclic peptides of protein N of SARS-CoV Urbani (Rabbit serum looped peptides) [4]: 0.5
MEVTPSGTWLTYHGA | 0.1 | 0.2 | 0.3 | 0.4 | 0.1 | 0.3 | 0.1 | 0.5 | 0.2 | 0.3 | 0.6 | 0.7 | 0.5 | 0.8 | 0.5 | 0.5 | 0.2 | 0.5 | 0.7 | 0.4 | Control Serum Blood-Bank Looped peptides [2]: 0.7; Control serum Blood-bank linear peptides [2]: 0.8; Control serum LUMC linear peptides [2]: 0.6; Control serum LUMC looped peptides [2]: 0.8; Binding of a rabbit serum to linear peptides of protein N of SARS-CoV Urbani (Rabbit serum linear peptides) [4]: 0.1; Binding of a rabbit serum to looped/cyclic peptides of protein N of SARS-CoV Urbani (Rabbit serum looped peptides) [4]: 0.4
MKELSPRWYFYYLGT | 0.1 | 0.2 | 0.2 | 0.4 | 0.1 | 0.2 | 0.1 | 0.4 | 0.1 | 0.2 | 0.5 | 0.7 | 0.4 | 0.6 | 0.4 | 0.4 | 0.2 | 0.4 | 0.6 | 0.4 | Binding of Control Serum Blood-Bank to Looped peptides [2]: 0.7; Binding of Control serum Blood-bank to linear peptides [2]: 0.7; Binding of Control serum LUMC to linear peptides [2]: 0.6; Binding of Control serum LUMC to looped peptides [2]: 0.6; Binding of a rabbit serum to linear peptides of protein N of SARS-CoV Urbani (Rabbit serum linear peptides) [4]: 0.1; Binding of a rabbit serum to looped/cyclic peptides of protein N of SARS-CoV Urbani (Rabbit serum looped peptides) [4]: 0.4
MSDNGPQSNQRSAPR | 0.1 | 0.3 | 0.2 | 0.2 | 0.1 | 0.1 | 0.2 | 0.4 | 0.2 | 0.3 | 0.6 | 0.4 | 0.6 | 0.4 | 0.5 | 0.4 | 0.3 | 0.4 | 0.5 | 0.1 | Binding of Control Serum Blood-Bank to Looped peptides [2]: 0.6; Binding of Control serum Blood-bank to linear peptides [2]: 0.6; Binding of Control serum LUMC to linear peptides [2]: 0.5; Binding of Control serum LUMC to looped peptides [2]: 0.5; Binding of a rabbit serum to linear peptides of protein N of SARS-CoV Urbani (Rabbit serum linear peptides) [4]: 0.1; Binding of a rabbit serum to looped/cyclic peptides of protein N of SARS-CoV Urbani (Rabbit serum looped peptides) [4]: 0.4

Reference: patent publication US20070128217A1 (priority 2003, published 2007)
